Reference: patent US7355074B2, “Compounds having aromatic rings and side-chain amide-functionality and a method for transporting monovalent anions across biological membranes using the same” (The University of Maryland, priority 2003, dated 2008)
Marks after values point to notes of the source that are not given here.

How the values were obtained:
[1] = pH-stat fluorescent transport assay with oligophenoxyacetamides (HPTS-loaded liposomes); type: biochemical; conditions: 100 mM NaCl inside and outside; 50 μm (10 mol % ligand to lipid ratio)
Description: FIGS. 1A and 1B are derived from of pH-stat fluorescent assays with oligophenoxyacetamide compounds 1-6 described herein. Suspensions of EYPC LUVs containing the pH sensitive dye pyranine (ex 405 nm and 460 nm em 510 nm) in a phosphate buffer were used (0.5 mM of lipid, 10 mM NanH3-nPO4 n=1, 2, pH 6.4 100 mM NaCl inside and outside) (A) illustrates initial pseudo-first order rate constants in the presence of 5 μm of ionophores 1-6 (1 mol % injection of 20 μl of 0.5 mM DMSO solution of 1-6 into 1.9 mL of vesicular suspension was followed by injection of 21 μl of 0.5 M NaOH and final lysis of liposomes with Triton X-100; (B) illustrates initial pseudo-first order rate constants assessed for various concentrations of oligomeric ionophores 2-6. The same experimental protocol as in (A) was used. Legend for traces denotes use of oligocompounds 2, 3, 4, 5, 6.
Liposome Preparation for Fluorimetric Assays. Egg yolk L-α-phosphatidylcholine (EYPC ethanol solution, […], 79 μmol) was dissolved in a CHCl3/MeOH mixture, the solution was evaporated under reduced pressure and the resulting thin film was dried under high vacuum for 2 h. The lipid film was hydrated in 1.2 mL of phosphate buffer (10 mM sodium phosphate, pH=6.4, 75-100 mM MnX, M=N^+, K^+, X=Cl^−, SO4^2−, n=1,2) containing 10 μM HPTS (pyranine, 8-hydroxypyrene-1,3,6-trisulfonic acid trisodium salt) for 40 min. During hydration, the suspension was submitted to 5 freeze-thaw cycle (liquid nitrogen, water at rt). The large multilamellar liposome suspension (1 mL) was submitted to high-pressure extrusion at rt (21 extrusions through a 0.1 μm polycarbonate membrane afforded a suspension of LUVs with an average diameter of 100 nm). The LUV suspension was separated from extravesicular dye by size exclusion chromatography (SEC) (stationary phase: Sephadex G-10, mobile phase: phosphate buffer) and diluted with the same phosphate buffer to give a stock solution with a lipid concentration of 11 mM (assuming 100% of lipid was incorporated into liposomes).
pH-state transport assays. Typically, 100 μL of HPTS-loaded vesicles (stock solution) was suspended in 1.9 mL of the corresponding buffer and placed into a fluorimetric cell. The emission of HPTS at 510 nm was monitored with excitation wavelengths at 403 and 460 nm simultaneously. During the experiment, 20 μL of a 0-10 mM DMSO solution of the compounds of interest was added (through an injection port), followed by injection of 21 μL of 0.5 M aqueous NaOH. […] Maximal possible changes in dye emission were obtained at the end of each experiment by lysis of the liposomes with detergent (40 μL of 5% aqueous Triton X100). The final transport trace was obtained as a ratio of the emission intensities monitored at 460 and 403 nm and normalized to 100% of transport. Pseudo-first order rate constants were calculated from slopes of the plot of In([H^+ins]−[H^+out]) versus time, here [H^+ins] and [H^+out] are the intravesicular and extravesicular proton concentrations, respectively. The [H^+out] was assumed to remain constant over the course of the experiment, while [H^+ins] values were calculated for each point from the HPTS emission intensities according to the calibration equation pH=1.1684·log(Io/Il)+6.9807, where Io is the emission intensity with excitation at 460 nm and Il is emission intensity with excitation at 403 nm. The calibration was performed by measuring the HPTS emission intensities and the pH values of a […] HPTS solution in 10 mM phosphate buffer containing 100 mM NaCl (see FIG. s3). The absolute values for rate constants varied depending on the age of the vesicular solution and the actual stock solution of liposomes used.

[2] = pH-assisted fluorimetric transport assay with calixarene amides (HPTS-loaded liposomes); type: biochemical
Description: The ability of 1 and 2 to mediate ion flux across a lipid bilayer was studied fluorimetrically. A solution of 1 or 2 was added to a suspension of EYPC large unilamellar vesicles (LUVs) containing the pH-sensitive dye pyranine. An NaOH solution was added to the extravesicular buffer to create a gradient of approximately one pH unit. The resulting electrostatic potential, caused by proton efflux from the liposomes, can be compensated by cation influx or anion efflux, as mediated by the exogenous ligand. Ion transport across the membrane was signaled by the increase in relative fluorescence that accompanied the rise in intravesicular pH.
Liposome Preparation. EYPC HPTS-Containing LUVs, egg yolk 1-α-phosphatidylcholine (EYPC, 60 mg, […]) was dissolved in a CHCl3MeOH mixture, the solution was evaporated under reduced pressure, and the resulting thin film was dried under high vacuum for 2 h. The lipid film was hydrated in 1.2 mL of phosphate buffer (10 mM sodium phosphage, pH=6.4, 75-100 mM MX, M=Na^+, K^+, Cs^+, X=[…], SO4^2−) containing 10 μM HPTS (pyranine 8-hydroxypyrene-1,3,6-trisulfonic acid trisodium salt) for 2 h. The LUV suspension (1 mL) was submitted to high-pressure extrusion at room temperature (2) extrusions through a 0.1 μM polycarbonate membrane afforded LUVs with a diameter of 100 nm). The LUV suspension was separated from extravesicular dye by size exclusion chromatography (SEC) stationary phase: Sephadex G-10, mobile phase:phosphate buffer) and diluted with the same phosphate buffer to give a stock solution with a lipid concentration of 11 mM (assuming 100% of lipid was incorporated into liposomes).
Fluorimetric Transport Assays. pH-Assisted Transport Assays. Typically, 100 μL of HPTS-loaded vesicles (stock solution) was suspended in 1.85 mL of the corresponding buffer and placed into a fluorimetric cell. HPTS emission at 510 nm was monitored with excitation wavelengths at 403 and 460 nm simultaneously. During the experiment, 20 μL of a 0-10 mM THF solution of the compound of interest was added through an injection port, followed by injection of 21 μL of 0.5 M aqueous NaOH. Addition of the NaOH caused a pH increase of approximately 1 pH unit in the extravesicular buffer. Maximal changes in dye emission were obtained at the end of each experiment by lysis of the liposomes with detergent (40 μL of 5% aqueous Triton x100). The final transport trace was obtained as a ratio of the emission intensities monitored at 460 and 403 nm and normalized to 100% of transport.

[3] = 1H NMR binding experiment in CDCl3, HCl extraction
Description: FIG. 7 illustrates a series of […] spectra (400 mHz, CDCl3, 22° C.) of calixarene tetrabutylamide in the presence of different species: (A) the compound alone (5 mm); (B) the compound with 1 equiv. of Bu4 NCl; (C) the compound after washing CDCl3 solution of the compound with an aqueous solution of 0.5 m HCl; (D) after washing CDCl3 solution of the compound with an aqueous solution of 0.5 M H2SO4.
To obtain evidence for Cl^− binding by 2, ^1H NMR experiments were run in CDCl3 using n-Bu4-NCl and HCl as Cl^− sources. Anion receptors usually show chemical shift perturbation upon anion complexation, particularly for amide NH protons that hydrogen bond to the anion. […] Calix[4]arene tetrabutylamide 2 does, however, bind HCl. Thus, shaking a CDCl3 solution of 2 with aqueous HCl led to disappearance of the amide NH proton and a significant upfield shift of the […] protons (FIG. 4c).

[4] = intravesicular pH of LUVs experiencing a Cl- gradient (calixarene amides); type: biochemical; conditions: NaCl-loaded LUVs in isosmotic Na2SO4 buffer
Description: FIG. 8 illustrates changes in intravesicular pH upon addition of calixarene tetrabutylamide and calixarene octabutylamide to NaCl^+ loaded vesicles suspended in a sulfate phosphate buffer (emission of HPTS is used to monitor the pH changes in LUVs). At t=60 s, 20 μL of 500 μM of calixarene tetrabutylamide 2 (top trace) or the octabutylamide 3 (bottom trace) was added to 1.95 mL of a LUV suspension to give 1:100 ligand:lipid molar ratio. At t=500 s, 40 μL of 5% Triton X-100 was added. Intravesicular pH values were obtained as a function of the ratio of HPTS emission intensities at 510 nm, when excited at […]. The calibration was performed by measuring the HPTS emission intensities and the pH values of a […] HPTS solution in 10 mM phosphate buffer containing 100 mM NaCl. The calibration equation obtained (pH=1.1684×log (I0I1)+6.9807, r=0.998, where I0 is the emission intensity with excitation at […]) was used to convert the emission intensities into actual pH values.
The pH reached its maximum 250 s after addition of 2 and held constant until the liposomes were lysed with detergent. […] In effect, compound 2 moves […] along with Cl^− down the chloride gradient, consequently building a pH gradient across the membrane. Therefore, NaCl filled vesicles lose Cl^− and H^+ upon addition of 2 and become more alkaline.
Calcein-Release Assay. Calcein-loaded vesicles (100 μL of the stock solution), filled with a saline phosphate buffer (10 mM sodium phosphate, pH 6.4, […] NaCl), were suspended in 1.85 mL of an isoosmotic phosphate sulfate buffer (10 mM sodium phosphate, pH 6.4^−75 mM (Na2SO4) and placed into a fluorimetric cell. HPTS emission at 510 nm was monitored with excitation wavelengths at 403 and 460 nm simultaneously. During the experiment, 20 μL of a 0-500 μM THF solution of the compound of interest was added through an injection port. Intravesicular pH values were obtained as a function of the ratio of HPTS emission intensities at 510 nm, when excited at 403 and 460 nm. […]

SMILES	transport activity [1]	ion transport ([2]; 50 μM)	HCl binding [3]	drop in rate constant on changing extravesicular electrolyte from NaCl to CsCl [2] [fold]	transport activity when buffer changed from NaCl to Na2SO4 [2]	Initial Pseudo-first Order Transport Rate Constants, Na2SO4 ([2]; 5 μM, 100 mM Na2SO4 inside pH 6.4 and outside pH 7.4, not corrected for unmediated exchange)	Initial Pseudo-first Order Transport Rate Constants, CsCl ([2]; 5 μM, 100 mM NaCl inside pH 6.4, 100 mM CsCl outside pH 7.4, not corrected for unmediated exchange)	Initial Pseudo-first Order Transport Rate Constants, KCl ([2]; 5 μM, 100 mM NaCl inside pH 6.4, 100 mM KCl outside pH 7.4, not corrected for unmediated exchange)	Initial Pseudo-first Order Transport Rate Constants, NaCl ([2]; 5 μM, 100 mM NaCl inside pH 6.4, 100 mM NaCl outside pH 7.4, not corrected for unmediated exchange)	rate constant k of ion transport ([2]; Na2SO4 loaded vesicles in isotonic buffer) [s⁻¹]	rate constant k of ion transport ([2]; NaCl buffer) [s⁻¹]	cation selectivity of ion transport ([2]; buffers containing Na, K or Cs)	change of intravesicular pH / pH gradient formation [4]
CCCCNC(=O)COc1ccccc1 [Monomer 1, N-butyl-2-phenoxyacetamide]	some activity	no ion transport	no HCl binding	–	–	–	–	–	–	–	–	–	–
CCCCN(CCCC)C(=O)COc1c2cccc1Cc1cccc(c1OCC(=O)N(CCCC)CCCC)Cc1cccc(c1OCC(=O)N(CCCC)CCCC)Cc1cccc(c1OCC(=O)N(CCCC)CCCC)C2 [calix[4]arene octabutylamide 3, Calix[4]arene Octabutylamide]	–	–	–	3.5	still mediated significant ion transport	9.1^b,d ×10^−3 s^−1	5.4^b,c ×10^−3 s^−1	12^b,c ×10^−3 s^−1	19^b,c ×10^−3 s^−1	0.0091	0.019	discriminates between monovalent cations	did not result in formation of a pH gradient
